Assay: gradient 5% acetonitrile 3 min, to 50% in 2 min, to 85% in 15 min, held 3 min, 100 µL/min
Settings: column: Zorbax Extend-C18 2.1 x 50 mm; eluents: water / acetonitrile, 0.1% formic acid
Procedure, shortened: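 Retention times of pure standards were taken from adduct peaks that were selected by computer and manually inspected. Over 3 months, mixtures of ~100 molecules were run by HPLC–quadrupole time-of-flight mass spectrometry in positive and negative ionization mode. The Zorbax Extend-C18 column (2.1 × 50 mm, 1.8 μm) ran at 100 μL/min in water and acetonitrile, each containing 0.1% formic acid, with 40 μL dead volume and 900 μL dwell volume.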

Compared with Cc1ccc(-c2nnc(-c3nc(NCCc4ccco4)c4ccccc4n3)o2)cc1, O=C(Cc1noc2ccccc12)NCCOc1ccc2nnc(-c3ccc(F)cc3)n2n1 is lower in RP-LC retention time: 1030 s for the first, 679 s for the second.

Compared with Cc1ccc(C2=NC(c3ccc([N+](=O)[O-])cc3)SC(N3CCOCC3)=N2)cc1 (stereo not given), Cc1ccc(NC(=O)Cn2nc(N3CCOCC3)c3ccccc3c2=O)cc1Cl is higher in RP-LC retention time: 642 s for the first, 780 s for the second.

Compared with O=C(Cc1ccccc1Cl)Nc1cnc(N2CCCC2)nc1, O=C(NCc1ccccc1)C1CCc2nc(N3CCOCC3)ncc2C1 (stereo not given) is higher in RP-LC retention time: 604 s for the first, 696 s for the second.

Compared with Cc1ccc(NS(=O)(=O)c2ccc3c(c2)CCCC(=O)N3)cc1F, CNC(=O)c1ccc(-c2nc3cc(NS(=O)(=O)c4ccc(Br)cc4)ccc3n2C)cc1 is lower in RP-LC retention time: 763 s for the first, 673 s for the second.

First: CC(C)c1ccc(Oc2nccn3c(=O)n(CC(=O)Nc4ccc(Br)cc4)nc23)cc1
Second: COc1ccc(NC(=O)N(C)CCc2noc(COc3ccc(Cl)cc3)n2)cc1
The RP-LC retention time of the first is higher: 1090 s for the first, 1010 s for the second.

First: O=C(Nc1ncccn1)c1c[nH]c2c(Cl)cccc2c1=O
Second: CCn1cc(C(=O)Nc2ccccc2C)c(=O)c2ccc(C)nc21
The RP-LC retention time of the first is lower: 617 s for the first, 1090 s for the second.

First: O=C(NCc1ccc2c(c1)N(C(=O)c1ccccc1)CC2)c1cccs1
Second: O=C(NCc1nc(-c2cccc(-c3ccn[nH]3)c2)no1)c1ccccc1
The RP-LC retention time of the first is higher: 814 s for the first, 741 s for the second.

Going from CCc1nc(-c2csc(S(=O)(=O)N3CCCC(C(=O)NC4CCCC4)C3)c2)no1 (stereo not given) to COc1ccc(Cl)cc1S(=O)(=O)N1CCC(C(=O)NCCc2csc(C)n2)CC1, the RP-LC retention time falls from 937 s to 732 s.

Compared with CN1c2ccccc2C(=O)NC12CCN(C(=O)Nc1cccc(F)c1)CC2, CCOc1ccc(NC(=O)N2CCC3(CC2)NC(=O)c2ccccc2N3CC)cc1 is higher in RP-LC retention time: 726 s for the first, 785 s for the second.

First: CCC(C)OC(=O)C1=C(C)NC(=O)NC1c1ccccc1F (stereo not given)
Second: O=C(NC1CCCC1)C1c2ccccc2C(=O)N1Cc1ccc(F)cc1 (stereo not given)
The RP-LC retention time of the first is lower: 800 s for the first, 862 s for the second.

Compared with CCC1(O)CCC12CCN(C(=O)c1ccoc1)CC2 (stereo not given), CCc1ccc(CN2CCC3(CC2)CC(O)(COC)CCO3)cc1 (stereo not given) is lower in RP-LC retention time: 691 s for the first, 575 s for the second.

Compared with Cc1nc(C2(C)CCN(S(=O)(=O)c3cc(F)ccc3C)CC2)no1, Cc1ccccc1S(=O)(=O)N1CCC2(CC1)NCCN=C2NCc1cc(F)cc(F)c1 is lower in RP-LC retention time: 948 s for the first, 730 s for the second.

First: Cc1ccc(CCNC(=O)c2cc3n(n2)CC(C)(C(=O)NCc2ccc(F)cc2)N(C)C3=O)cc1 (stereo not given)
Second: CCN(CC)c1nc2cc(C(=O)OC)ccc2c(=O)n1Cc1ccc(F)cc1
The RP-LC retention time of the first is lower: 828 s for the first, 1180 s for the second.

First: O=C(NCCC1=CCCCC1)c1nnc(-c2ccc(S(=O)(=O)N3CCCC3)cc2)o1
Second: O=C(NCc1ccc(N2CCCCC2)cc1)C1CCN(c2nnc3ccccn23)CC1
The RP-LC retention time of the first is higher: 1050 s for the first, 545 s for the second.

Going from CC(=O)c1cccc(S(=O)(=O)NC(C)Cc2ccco2)c1 (stereo not given) to COc1ccc(CCNC(=O)CSc2nccn2Cc2ccco2)cc1OC, the RP-LC retention time falls from 770 s to 574 s.

First: CN(C)c1cccc(C(=O)N2CCN(c3cc(-c4ccccc4)[nH]n3)CC2)c1
Second: CC(C)Cn1c(=O)c(N2CCN(C(=O)CSc3ccccc3)CC2)nc2ccncc21
The RP-LC retention time of the first is lower: 690 s for the first, 724 s for the second.

Compared with Cc1ccccc1-n1c(SCc2nc(-c3ccccc3)no2)nc2cc3c(cc2c1=O)OCO3, Clc1ccc2nc(-c3ccccc3)c(Nc3ccc4c(c3)OCO4)n2c1 is lower in RP-LC retention time: 1190 s for the first, 781 s for the second.

Compared with CNC(=O)CSc1nnc(N2CCN(C(=O)c3cc(=O)c4ccccc4o3)CC2)s1, O=C(Cn1c(=O)cc(C(=O)N2CCCC2)c2ccccc21)Nc1cc(F)ccc1F is higher in RP-LC retention time: 599 s for the first, 737 s for the second.

First: Cc1sc(-c2cc(C(F)(F)F)on2)cc1S(=O)(=O)NCCC(C)C
Second: Cc1cccc(N2CCN(S(=O)(=O)c3cc(-c4cc(C(F)(F)F)on4)cs3)CC2)c1C
The RP-LC retention time of the first is lower: 1200 s for the first, 1420 s for the second.

Compared with Cc1ccc(Oc2nccnc2N2CCC(C(=O)NCCCN3CCOCC3)CC2)cc1, Cc1ccccc1OCCCCn1c(CN2CCOCC2)nc2ccccc21 is lower in RP-LC retention time: 648 s for the first, 646 s for the second.

Compared with COc1ccc(S(=O)(=O)Nc2cc3sc(=O)oc3c3ccccc23)cc1, Cc1nn(-c2ccccc2)c(C)c1S(=O)(=O)Nc1ccc(S(N)(=O)=O)cc1 is lower in RP-LC retention time: 894 s for the first, 731 s for the second.

First: CC1=C(C(=O)Nc2ccc(F)cc2C)C2(CCCCCC2)OC1=O
Second: COc1ccc(OC)c(NC(=O)c2nc(C)oc2C)c1
The RP-LC retention time of the first is higher: 972 s for the first, 935 s for the second.

First: CSc1ccccc1NC(=O)c1cc2ncc(Br)cn2n1
Second: CCc1cccc(NC(=O)c2cc(C(C)C)n3nccc3n2)c1
The RP-LC retention time of the first is lower: 1020 s for the first, 1240 s for the second.

Compared with O=C(Cc1cc(-c2ccc3c(c2)OCO3)on1)NCc1cccnc1, O=C(Cn1cc(C(=O)C(=O)N2CCCC2)c2ccccc21)NCc1ccc2c(c1)OCCCO2 is higher in RP-LC retention time: 573 s for the first, 786 s for the second.

Going from O=C(Cn1cnc2c(sc3nc(-c4ccccc4)ccc32)c1=O)Nc1ccc(Cl)cc1F to CCc1nc(OCC(=O)Nc2cc(Cl)ccc2Cl)c2ccccc2n1, the RP-LC retention time falls from 1110 s to 964 s.

Going from Cc1cccc2nc(-c3cccc(Cl)c3)c(Nc3ccc4c(c3)OCCO4)n12 to O=C(Nc1ccnn1Cc1ccccc1)c1cc(=O)c2cc(Cl)ccc2o1, the RP-LC retention time rises from 717 s to 867 s.

Compared with Cc1ccnc(NS(=O)(=O)c2ccc(NC(=O)c3ccc([N+](=O)[O-])s3)cc2)n1, CCn1cc(-c2nc(C(=O)Nc3ccc(C(=O)OC)cc3)cs2)c2cccnc21 is higher in RP-LC retention time: 699 s for the first, 1080 s for the second.

First: Cc1ccc(=O)n(CC(=O)NCc2cccs2)n1
Second: CCNC(=O)c1cc(C)nc2ccc(Cl)cc12
The RP-LC retention time of the first is lower: 591 s for the first, 649 s for the second.

First: COCCNC(=O)c1nc(-c2ccnc(N3CCC(C)CC3)c2)no1
Second: O=C(c1cn[nH]c1)N1CCC(c2nc(CCOCC3CC3)no2)C1 (stereo not given)
The RP-LC retention time of the first is higher: 670 s for the first, 626 s for the second.

First: CCc1nnc(NC(=O)CSc2nnc(Cn3c(=O)sc4ccccc43)n2C)s1
Second: O=C(Nc1nc(-c2cccs2)cs1)c1ccc2ncsc2c1
The RP-LC retention time of the first is lower: 658 s for the first, 874 s for the second.

Compared with Cc1ccc(-c2noc(Cn3ccn(-c4ccc(Cl)cc4)c(=O)c3=O)n2)cc1, Cc1ccc(S(=O)(=O)N2CCCC2c2nc(-c3ccc(Cl)cc3)no2)cc1C (stereo not given) is higher in RP-LC retention time: 918 s for the first, 1300 s for the second.

Going from CC(=O)N1CCc2cc(N3CC(C(=O)Nc4ccccc4C(C)C)CC3=O)ccc21 (stereo not given) to COc1ccc2c(c1)C1(CCN(S(=O)(=O)c3ccccc3)C1)C(=O)N2C (stereo not given), the RP-LC retention time rises from 728 s to 882 s.

Compared with Nc1ccc(/C=C/c2ccc3ncccc3c2)cc1, COc1ccc(/C=C/c2nc(-c3cccc(-c4ccnn4C)c3)no2)cc1OC is higher in RP-LC retention time: 643 s for the first, 1050 s for the second.

Going from COCc1ncc(C)n1CC1CN(C(=O)c2ocnc2C)C1 to COCCN(CCOC)c1ncnc2c1cnn2-c1ccc(C)cc1C, the RP-LC retention time rises from 511 s to 902 s.

First: CNc1nc(SC)n(C)c(=O)c1N=O
Second: Cc1ccc(Nc2ncccc2S(N)(=O)=O)cc1C
The RP-LC retention time of the first is lower: 667 s for the first, 852 s for the second.

Going from COCC(=O)N(CC(=O)N1CCc2sccc2C1COc1ccc(Cl)cc1)CC1CCCO1 (stereo not given) to O=C(CCC1CCCN(C(=O)Nc2ccc(Cl)cc2)C1)NCc1ccccc1Cl (stereo not given), the RP-LC retention time rises from 871 s to 939 s.

Going from CCCCN1C(=O)C(NC(=O)c2cccc(OC)c2)(C(F)(F)F)C(C(=O)OC)=C1C (stereo not given) to CCNC(=O)c1nc(C(=O)NCc2ccc(F)cc2F)cs1, the RP-LC retention time falls from 988 s to 780 s.

First: COc1ccc(Cl)cc1NC(=O)N1CCCC(C)(C(=O)NCc2ccccc2)C1 (stereo not given)
Second: CCCn1cc(S(=O)(=O)NCc2ccccc2OC)c2cccnc21
The RP-LC retention time of the first is higher: 998 s for the first, 890 s for the second.

Compared with CCn1cc(C2=CCN(S(=O)(=O)c3ccc(C(C)(C)C)cc3)CC2)c2cccnc21, Cc1ccc(S(=O)(=O)CCc2noc(-c3cccc4[nH]ccc34)n2)cc1 is lower in RP-LC retention time: 1270 s for the first, 887 s for the second.

Compared with Cc1cc(C2CCCN2C(=O)Nc2ccccc2Br)on1 (stereo not given), O=C(c1cn(-c2ccc(-c3nc(C4CC4)no3)cn2)cn1)N1CCc2ccccc2C1 is higher in RP-LC retention time: 867 s for the first, 968 s for the second.

Going from CCOC(=O)CNC(=O)N1CCN(CCn2c(C(F)(F)F)nc3cccnc32)CC1 to CCOc1ccc(C(=O)N2CCN(c3cnn4c(C5CC5)nnc4c3)CC2)cc1, the RP-LC retention time rises from 588 s to 659 s.

First: Cc1cc(S(=O)(=O)N2CC(c3nc(-c4ccccc4)nn3C)C2)ccc1F
Second: Cc1ccc(-c2cc3c(=O)n(Cc4noc(CN5CCCCC5C)n4)ccn3n2)cc1 (stereo not given)
The RP-LC retention time of the first is lower: 602 s for the first, 674 s for the second.

Compared with O=C(Cn1nc2ccc(-c3ccc(Cl)cc3)nn2c1=O)N1CCN(c2ccc(F)cc2)CC1, COc1ccccc1N1CCN(c2ncc(C(=O)Nc3ccccc3)c(N)n2)CC1 is lower in RP-LC retention time: 876 s for the first, 742 s for the second.

First: Cc1ccc(-c2nc(NC(=O)c3cc(C)on3)sc2C)c(C)c1
Second: O=S(=O)(c1ccc2c(c1)-c1oncc1CO2)N1CCC2(CC1)OCCO2
The RP-LC retention time of the first is higher: 1120 s for the first, 827 s for the second.

First: C(#Cc1ccccc1)CN1CCN(CC#Cc2ccccc2)CC1
Second: CCC(CC)NC(=O)C1CCCCc2nnc(C(C)C)n21 (stereo not given)
The RP-LC retention time of the first is lower: 616 s for the first, 664 s for the second.

Source: the METLIN SMRT retention time set (Domingo-Almenara et al. 2019)
